Cc1cccc(N(C)C(=S)Oc2ccc3ccccc3c2)c1
solubility (mole fraction)
Details	in acetic acid	in ethanol	in ethylene glycol	in isobutanol	in isopropanol	in methanol	in n-butanol	in n-octanol	in n-propanol	in propylene glycol
283.15 K	0.00186	0.000558	5.01e-05	0.000544	0.000365	0.000402	0.00082	0.00145	0.000679	0.000155
288.15 K	0.00249	0.000765	5.88e-05	0.000734	0.00054	0.0005	0.00115	0.00189	0.00104	0.000214
293.15 K	0.00307	0.000957	7.5e-05	0.000933	0.000731	0.000691	0.00154	0.00251	0.00136	0.000264
298.15 K	0.00359	0.00125	8.76e-05	0.00137	0.000965	0.000843	0.00207	0.00311	0.00171	0.000335
303.15 K	0.0045	0.00161	0.000107	0.00174	0.00125	0.00102	0.00264	0.004	0.00218	0.000413
308.15 K	0.00574	0.00196	0.000129	0.0025	0.00168	0.00119	0.00345	0.00526	0.00286	0.000542
313.15 K	0.00779	0.00241	0.000156	0.00316	0.00225	0.00149	0.00448	0.00708	0.00351	0.00068
318.15 K	0.00993	0.00287	0.000201	0.00409	0.00273	0.00181	0.00568	0.00896	0.00451	0.000785
323.15 K	0.0127	0.00365	0.000258	0.00544	0.00357	0.00224	0.0076	0.0115	0.00606	0.000953
328.15 K	0.0156	0.00448	0.00031	0.00705	0.00437	0.00267	0.0097	0.0148	0.00772	0.00125

Reference: BigSolDB 2.1
